In patent EP4722212A1, “NOVEL COMPOUND FOR INHIBITING PROTEIN KINASES AND PHARMACEUTICAL COMPOSITION COMPRISING SAME” (Magicbullettherapeutics Co., Ltd., priority 2023, dated 2024):
Like-named read-outs stand apart in the source and are kept apart here.

What was measured:
Test in all cases: Kinase panel
Format in all cases: biochemical
[1] = biological target: ALK4/ACVR1B (Homo sapiens, UniProt P36896); details: read-out: residual enzyme activity
Outline: (§1)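 Kinase profiling used a full biochemical panel. Test compound concentration: 1 µM, single point. Output: calculated residual activity, with kinases at or under 40% reported.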

[2] = biological target: ALK5/TGFBR1 (Homo sapiens, UniProt P36897); details: ALK5/TGFBR1, 1 µM; read-out: residual enzyme activity
Outline: as §1

[3] = biological target: ARK5/NUAK1 (Homo sapiens, UniProt O60285); details: read-out: residual enzyme activity
Outline: as §1

[4] = biological target: CDK1/CYCLIN B (Homo sapiens, UniProt P06493); details: read-out: residual enzyme activity
Outline: as §1

[5] = biological target: CDK2/CYCLIN O (Homo sapiens, UniProt P24941); details: read-out: residual enzyme activity
Outline: as §1

[6] = biological target: CK1G1 (Homo sapiens, UniProt Q9HCP0); details: read-out: residual enzyme activity
Outline: as §1

[7] = biological target: CK2A2 (Homo sapiens, UniProt P19784); details: read-out: residual enzyme activity
Outline: as §1

[8] = biological target: CLK1 (Homo sapiens, UniProt P49759); details: CLK1, 1 µM; read-out: residual enzyme activity
Outline: as §1

[9] = biological target: DAPK2 (Homo sapiens, UniProt Q9UIK4); details: DAPK2, 1 µM; read-out: residual enzyme activity
Outline: as §1

[10] = biological target: EGFR (Homo sapiens, UniProt P00533); details: read-out: residual enzyme activity
Outline: as §1

[11] = biological target: EPHA1 (Homo sapiens, UniProt P21709); details: EPHA1, 1 µM; read-out: residual enzyme activity
Outline: as §1

[12] = biological target: ERBB2/HER2 (Homo sapiens, UniProt P04626); details: ERBB2/HER2, 1 µM; read-out: residual enzyme activity
ERBB2/HER2, sequence (P04626 23-1255): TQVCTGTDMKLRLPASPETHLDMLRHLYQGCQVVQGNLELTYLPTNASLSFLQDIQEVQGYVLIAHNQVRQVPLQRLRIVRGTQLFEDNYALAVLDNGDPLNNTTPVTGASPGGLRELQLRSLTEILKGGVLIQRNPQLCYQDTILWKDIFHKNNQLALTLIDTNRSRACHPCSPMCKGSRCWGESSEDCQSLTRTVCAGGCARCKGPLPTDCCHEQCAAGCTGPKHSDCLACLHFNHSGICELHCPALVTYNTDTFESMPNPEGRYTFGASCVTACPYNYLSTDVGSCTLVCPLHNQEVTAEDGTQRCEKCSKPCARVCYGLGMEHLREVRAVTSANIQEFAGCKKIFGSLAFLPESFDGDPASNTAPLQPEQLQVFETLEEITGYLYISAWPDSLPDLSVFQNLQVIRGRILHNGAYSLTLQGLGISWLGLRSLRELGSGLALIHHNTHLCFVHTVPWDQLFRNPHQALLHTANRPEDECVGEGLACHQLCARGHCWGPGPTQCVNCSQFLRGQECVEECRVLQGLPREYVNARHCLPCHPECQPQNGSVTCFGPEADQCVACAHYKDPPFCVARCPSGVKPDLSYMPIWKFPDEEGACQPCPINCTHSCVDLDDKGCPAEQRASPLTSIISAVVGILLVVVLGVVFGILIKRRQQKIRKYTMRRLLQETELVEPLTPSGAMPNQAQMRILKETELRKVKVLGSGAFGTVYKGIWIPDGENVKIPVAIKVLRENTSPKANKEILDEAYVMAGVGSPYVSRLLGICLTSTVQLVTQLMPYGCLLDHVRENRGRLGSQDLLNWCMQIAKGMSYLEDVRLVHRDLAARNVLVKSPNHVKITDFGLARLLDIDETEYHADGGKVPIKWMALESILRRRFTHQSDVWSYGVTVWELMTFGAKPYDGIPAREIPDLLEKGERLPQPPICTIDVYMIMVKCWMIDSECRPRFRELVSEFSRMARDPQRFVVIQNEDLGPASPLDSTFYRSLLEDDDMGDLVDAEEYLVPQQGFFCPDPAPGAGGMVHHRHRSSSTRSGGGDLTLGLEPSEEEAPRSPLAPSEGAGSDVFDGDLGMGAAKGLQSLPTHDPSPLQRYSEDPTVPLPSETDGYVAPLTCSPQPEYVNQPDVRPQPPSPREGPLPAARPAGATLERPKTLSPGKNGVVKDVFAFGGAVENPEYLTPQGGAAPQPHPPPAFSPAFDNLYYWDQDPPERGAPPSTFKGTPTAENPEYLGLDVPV
Outline: as §1

[13] = biological target: GRK2 (Homo sapiens, UniProt P25098); details: GRK2, 1 µM; read-out: residual enzyme activity
GRK2, sequence (P25098 whole entry, species assumed): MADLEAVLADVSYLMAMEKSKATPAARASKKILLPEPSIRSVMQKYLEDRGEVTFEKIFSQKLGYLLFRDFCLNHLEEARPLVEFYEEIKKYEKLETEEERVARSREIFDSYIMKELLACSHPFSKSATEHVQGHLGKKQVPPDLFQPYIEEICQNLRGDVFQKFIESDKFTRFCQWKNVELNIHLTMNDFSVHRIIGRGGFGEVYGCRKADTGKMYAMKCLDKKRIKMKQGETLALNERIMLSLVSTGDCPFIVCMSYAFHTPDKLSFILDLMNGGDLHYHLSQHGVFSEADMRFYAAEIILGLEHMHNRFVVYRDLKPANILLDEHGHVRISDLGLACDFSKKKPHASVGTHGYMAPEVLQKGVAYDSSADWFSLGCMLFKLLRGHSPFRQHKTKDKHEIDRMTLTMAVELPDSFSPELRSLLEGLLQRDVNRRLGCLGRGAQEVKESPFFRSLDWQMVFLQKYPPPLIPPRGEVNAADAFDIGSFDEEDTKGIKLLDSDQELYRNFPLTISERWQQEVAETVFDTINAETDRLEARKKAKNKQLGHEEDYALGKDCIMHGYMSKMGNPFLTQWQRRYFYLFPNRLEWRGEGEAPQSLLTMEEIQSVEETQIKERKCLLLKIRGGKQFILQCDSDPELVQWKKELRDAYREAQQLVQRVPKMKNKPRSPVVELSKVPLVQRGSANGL
Outline: as §1

[14] = biological target: LOK/STK10 (Homo sapiens, UniProt O94804); details: LOK/STK10, 1 µM; read-out: residual enzyme activity
Outline: as §1

[15] = biological target: MAPKAPK3 (Homo sapiens, UniProt Q16644); details: MAPKAPK3, 1 µM; read-out: residual enzyme activity
Outline: as §1

[16] = biological target: MEKK2 (Homo sapiens, UniProt Q9Y2U5); details: MEKK2, 1 µM; read-out: residual enzyme activity
Outline: as §1

[17] = biological target: MKK6 (Homo sapiens, UniProt P52564); details: MKK6, 1 µM; read-out: residual enzyme activity
Outline: as §1

[18] = biological target: MST3/STK24 (Homo sapiens, UniProt Q9Y6E0); details: MST3/STK24, 1 µM; read-out: residual enzyme activity
Outline: as §1

[19] = biological target: MST4 (Homo sapiens, UniProt Q9P289); details: MST4, 1 µM; read-out: residual enzyme activity
Outline: as §1

[20] = biological target: MYLK4 (Homo sapiens, UniProt Q86YV6); details: MYLK4, 1 µM; read-out: residual enzyme activity
MYLK4, sequence (Q86YV6 whole entry, species assumed): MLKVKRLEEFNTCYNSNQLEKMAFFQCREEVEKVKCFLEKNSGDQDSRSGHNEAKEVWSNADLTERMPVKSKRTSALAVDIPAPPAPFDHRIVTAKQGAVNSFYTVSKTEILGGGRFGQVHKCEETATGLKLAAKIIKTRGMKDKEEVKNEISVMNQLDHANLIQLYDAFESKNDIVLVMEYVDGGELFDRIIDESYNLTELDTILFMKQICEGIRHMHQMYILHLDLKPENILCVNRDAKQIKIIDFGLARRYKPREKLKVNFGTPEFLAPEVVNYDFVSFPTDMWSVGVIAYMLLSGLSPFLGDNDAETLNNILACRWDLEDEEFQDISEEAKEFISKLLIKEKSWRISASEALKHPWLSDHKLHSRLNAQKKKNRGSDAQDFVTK
Outline: as §1

[21] = biological target: NEK2 (Homo sapiens, UniProt P51955); details: NEK2, 1 µM; read-out: residual enzyme activity
Outline: as §1

[22] = biological target: NEK4 (Homo sapiens, UniProt P51957); details: NEK4, 1 µM; read-out: residual enzyme activity
Outline: as §1

[23] = biological target: NEK7 (Homo sapiens, UniProt Q8TDX7); details: NEK7, 1 µM; read-out: residual enzyme activity
NEK7, sequence (Q8TDX7 whole entry, species assumed): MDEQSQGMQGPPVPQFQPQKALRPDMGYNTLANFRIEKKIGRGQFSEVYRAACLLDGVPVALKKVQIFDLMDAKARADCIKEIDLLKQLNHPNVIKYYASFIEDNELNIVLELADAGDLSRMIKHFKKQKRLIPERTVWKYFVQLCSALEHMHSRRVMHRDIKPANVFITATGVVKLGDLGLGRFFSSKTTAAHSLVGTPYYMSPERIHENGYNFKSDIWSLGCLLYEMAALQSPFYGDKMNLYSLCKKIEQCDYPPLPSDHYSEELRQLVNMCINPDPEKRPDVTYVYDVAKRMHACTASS
Outline: as §1

[24] = biological target: PKCA (Homo sapiens, UniProt P17252); details: read-out: residual enzyme activity
Outline: as §1

[25] = biological target: PKCETA (Homo sapiens, UniProt P24723); details: read-out: residual enzyme activity
Outline: as §1

[26] = biological target: RSK1 (Homo sapiens, UniProt Q15418); details: RSK1, 1 µM; read-out: residual enzyme activity
Outline: as §1

[27] = biological target: RSK3 (Homo sapiens, UniProt Q15349); details: RSK3, 1 µM; read-out: residual enzyme activity
RSK3, sequence (Q15349 whole entry, species assumed): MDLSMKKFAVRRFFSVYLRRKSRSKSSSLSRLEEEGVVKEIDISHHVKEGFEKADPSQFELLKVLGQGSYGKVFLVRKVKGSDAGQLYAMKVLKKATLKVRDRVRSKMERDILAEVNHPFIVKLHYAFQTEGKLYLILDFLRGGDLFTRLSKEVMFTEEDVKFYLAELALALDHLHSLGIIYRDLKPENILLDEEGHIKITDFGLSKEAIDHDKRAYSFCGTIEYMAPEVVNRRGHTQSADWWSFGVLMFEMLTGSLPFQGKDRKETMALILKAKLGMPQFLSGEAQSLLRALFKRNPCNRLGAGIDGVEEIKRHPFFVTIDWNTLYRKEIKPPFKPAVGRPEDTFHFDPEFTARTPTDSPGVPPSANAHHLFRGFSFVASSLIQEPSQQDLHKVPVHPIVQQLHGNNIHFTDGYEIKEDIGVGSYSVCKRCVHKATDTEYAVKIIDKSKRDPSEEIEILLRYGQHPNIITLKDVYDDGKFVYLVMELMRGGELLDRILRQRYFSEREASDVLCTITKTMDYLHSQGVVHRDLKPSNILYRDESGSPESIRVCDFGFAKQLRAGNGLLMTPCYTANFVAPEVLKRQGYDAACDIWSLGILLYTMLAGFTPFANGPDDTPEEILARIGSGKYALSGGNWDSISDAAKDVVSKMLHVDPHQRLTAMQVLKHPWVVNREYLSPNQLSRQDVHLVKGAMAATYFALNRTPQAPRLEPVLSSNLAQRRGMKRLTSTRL
Outline: as §1

[28] = biological target: SNARK/NUAK2 (Homo sapiens, UniProt Q9H093); details: SNARK/NUAK2, 1 µM; read-out: residual enzyme activity
Outline: as §1

[29] = biological target: SNRK (Homo sapiens, UniProt Q9NRH2); details: read-out: residual enzyme activity
Outline: as §1

[30] = biological target: STK38L/NDR2 (Homo sapiens, UniProt Q9Y2H1); details: STK38L/NDR2, 1 µM; read-out: residual enzyme activity
STK38L/NDR2, sequence (Q9Y2H1 whole entry): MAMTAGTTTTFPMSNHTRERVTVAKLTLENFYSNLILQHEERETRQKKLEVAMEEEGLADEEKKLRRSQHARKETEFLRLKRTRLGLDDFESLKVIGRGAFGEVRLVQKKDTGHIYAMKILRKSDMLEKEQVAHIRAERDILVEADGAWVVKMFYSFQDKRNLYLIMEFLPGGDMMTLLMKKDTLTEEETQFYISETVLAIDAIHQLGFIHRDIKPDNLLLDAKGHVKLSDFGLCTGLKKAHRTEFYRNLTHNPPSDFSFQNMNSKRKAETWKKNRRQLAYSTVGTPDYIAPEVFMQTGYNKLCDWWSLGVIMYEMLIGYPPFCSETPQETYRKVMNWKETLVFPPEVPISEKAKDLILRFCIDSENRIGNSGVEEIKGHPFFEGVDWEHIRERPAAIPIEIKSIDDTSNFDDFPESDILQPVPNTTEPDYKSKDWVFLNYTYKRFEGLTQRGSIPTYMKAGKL
Outline: as §1

[31] = biological target: ULK1 (Homo sapiens, UniProt O75385); details: ULK1, 1 µM; read-out: residual enzyme activity
ULK1, sequence (O75385 whole entry, species assumed): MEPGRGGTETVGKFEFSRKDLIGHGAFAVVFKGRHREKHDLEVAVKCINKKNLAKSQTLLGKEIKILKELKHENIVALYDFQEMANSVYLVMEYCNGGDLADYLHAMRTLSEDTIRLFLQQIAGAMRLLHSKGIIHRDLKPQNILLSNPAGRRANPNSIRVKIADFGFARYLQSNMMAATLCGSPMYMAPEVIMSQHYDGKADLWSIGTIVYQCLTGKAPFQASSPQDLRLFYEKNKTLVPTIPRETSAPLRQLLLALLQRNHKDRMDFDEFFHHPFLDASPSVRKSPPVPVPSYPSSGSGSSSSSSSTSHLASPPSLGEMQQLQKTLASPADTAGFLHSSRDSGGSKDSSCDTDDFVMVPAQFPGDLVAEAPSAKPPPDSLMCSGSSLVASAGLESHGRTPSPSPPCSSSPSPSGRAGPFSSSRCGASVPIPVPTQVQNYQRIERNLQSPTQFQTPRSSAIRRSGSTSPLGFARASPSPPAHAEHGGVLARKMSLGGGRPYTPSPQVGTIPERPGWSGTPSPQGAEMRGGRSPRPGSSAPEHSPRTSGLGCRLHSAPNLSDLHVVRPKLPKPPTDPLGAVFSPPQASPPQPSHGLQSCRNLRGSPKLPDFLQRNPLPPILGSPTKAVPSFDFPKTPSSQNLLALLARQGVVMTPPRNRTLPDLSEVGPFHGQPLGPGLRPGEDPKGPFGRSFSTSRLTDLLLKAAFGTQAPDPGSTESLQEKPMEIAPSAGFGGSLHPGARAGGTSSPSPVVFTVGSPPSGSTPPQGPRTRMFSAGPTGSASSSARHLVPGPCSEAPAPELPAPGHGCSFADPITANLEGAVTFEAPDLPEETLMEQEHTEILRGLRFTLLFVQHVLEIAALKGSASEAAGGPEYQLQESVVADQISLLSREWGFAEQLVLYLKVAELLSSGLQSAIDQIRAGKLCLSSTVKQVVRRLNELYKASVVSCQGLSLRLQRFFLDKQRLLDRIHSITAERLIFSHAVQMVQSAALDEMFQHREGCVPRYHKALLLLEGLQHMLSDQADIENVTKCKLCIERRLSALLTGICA
Outline: as §1

[32] = biological target: ULK2 (Homo sapiens, UniProt Q8IYT8); details: ULK2, 1 µM; read-out: residual enzyme activity
Outline: as §1

[33] = biological target: VRK1 (Homo sapiens, UniProt Q99986); details: VRK1, 1 µM; read-out: residual enzyme activity
Outline: as §1

## Cc1ccc(Nc2ncc3c(n2)C2(CC2)C(=O)N(c2cc(NC(=O)c4cccc(C(F)(F)F)c4)ccc2C)C3)cn1 [Compound 51, N-(4-methyl-3-(2'-((6-methylpyridin-3-yl)amino)-7'-oxo-5'H-spiro[cyclopropane-1,8'-pyrido[4,3-d]pyrimidine]-6'(7'H)-yl)phenyl)-3-(trifluoromethyl)benzamide]
[1]
  remaining activity at 1 µM: > 40%
[2]
  remaining activity at 1 µM: > 40%
[3]; ARKS/NUAKl, 1 µM
  remaining activity at 1 µM: > 40%
[4]
  remaining activity at 1 µM: > 40%
[5]
  remaining activity at 1 µM: > 40%
[6]; CK1g1, 1 µM
  remaining activity at 1 µM: > 40%
[7]; CK2a2, 1 µM
  remaining activity at 1 µM: > 40%
[8]
  remaining activity at 1 µM: > 40%
[9]
  remaining activity at 1 µM: > 40%
[10]
  remaining activity at 1 µM: ≤ 40%
[11]
  remaining activity at 1 µM: ≤ 40%
[12]
  remaining activity at 1 µM: ≤ 40%
[13]
  remaining activity at 1 µM: > 40%
[14]
  remaining activity at 1 µM: ≤ 40%
[15]
  remaining activity at 1 µM: > 40%
[16]
  remaining activity at 1 µM: ≤ 40%
[17]
  remaining activity at 1 µM: > 40%
[18]
  remaining activity at 1 µM: > 40%
[19]
  remaining activity at 1 µM: > 40%
[20]
  remaining activity at 1 µM: > 40%
[21]
  remaining activity at 1 µM: > 40%
[22]
  remaining activity at 1 µM: ≤ 40%
[23]
  remaining activity at 1 µM: > 40%
[24]
  remaining activity at 1 µM: > 40%
[25]
  remaining activity at 1 µM: > 40%
[26]
  remaining activity at 1 µM: ≤ 40%
[27]
  remaining activity at 1 µM: > 40%
[28]
  remaining activity at 1 µM: > 40%
[29]
  remaining activity at 1 µM: > 40%
[30]
  remaining activity at 1 µM: > 40%
[31]
  remaining activity at 1 µM: > 40%
[32]
  remaining activity at 1 µM: > 40%
[33]
  remaining activity at 1 µM: > 40%

## Cc1cn(-c2cc(C(=O)Nc3ccc(C)c(N4Cc5cnc(NC6CC6)nc5C5(CC5)C4=O)c3)cc(C(F)(F)F)c2)cn1 [Compound 8, N-(3-(2'-(cyclopropylamino)-7'-oxo-5'H-spiro[cyclopropane-1,8'-pyrido[4,3-d]pyrimidine]-6'(7'H)-yl)-4-methylphenyl)-3-(4-methyl-1H-imidazol-1-yl)-5-(trifluoromethyl)benzamide]
[1]
  remaining activity at 1 µM: > 40%
[2]
  remaining activity at 1 µM: > 40%
[3]; ARK5/NUAK1, 1 µM
  remaining activity at 1 µM: > 40%
[4]
  remaining activity at 1 µM: > 40%
[5]
  remaining activity at 1 µM: > 40%
[6]; CK1G1, 1 µM
  remaining activity at 1 µM: > 40%
[7]; CK2A2, 1 µM
  remaining activity at 1 µM: > 40%
[8]
  remaining activity at 1 µM: > 40%
[9]
  remaining activity at 1 µM: > 40%
[10]
  remaining activity at 1 µM: ≤ 40%
[11]
  remaining activity at 1 µM: ≤ 40%
[12]
  remaining activity at 1 µM: ≤ 40%
[13]
  remaining activity at 1 µM: > 40%
[14]
  remaining activity at 1 µM: ≤ 40%
[15]
  remaining activity at 1 µM: > 40%
[16]
  remaining activity at 1 µM: ≤ 40%
[17]
  remaining activity at 1 µM: > 40%
[18]
  remaining activity at 1 µM: > 40%
[19]
  remaining activity at 1 µM: > 40%
[20]
  remaining activity at 1 µM: > 40%
[21]
  remaining activity at 1 µM: > 40%
[22]
  remaining activity at 1 µM: ≤ 40%
[23]
  remaining activity at 1 µM: > 40%
[24]
  remaining activity at 1 µM: > 40%
[25]
  remaining activity at 1 µM: > 40%
[26]
  remaining activity at 1 µM: ≤ 40%
[27]
  remaining activity at 1 µM: > 40%
[28]
  remaining activity at 1 µM: > 40%
[29]
  remaining activity at 1 µM: > 40%
[30]
  remaining activity at 1 µM: > 40%
[31]
  remaining activity at 1 µM: > 40%
[32]
  remaining activity at 1 µM: > 40%
[33]
  remaining activity at 1 µM: > 40%
